Molecules are shown by their SMILES. Like-named read-outs stand apart in the source and are kept apart here.

Data set [1] relates to citric acid evoked coughing. The format is in vivo, guinea pig. The settings on record: anesthetized guinea pigs.
Data set [2] relates to citric acid evoked coughing. Nature of the data set: citric acid evoked coughing in conscious (unanesthetized) guinea pigs. The class given is in vivo, guinea pig. The settings on record: 1 mg/mL, nebulized, delivered as an aerosol to the airways, listed as acid-activated omeprazole.
In another data set the test system is cough receptors. The settings on record: in vitro; alpha3-selective concentration; cited from earlier work.
For data set [3], the system named is Na+-K+ ATPase activity of cough receptor terminations. The settings on record: Mazzone et al., J. Neurosci. 2009; cited from earlier work.
The subject of data set [4] is citric acid evoked coughing. The settings on record: alpha3-selective concentration; cited from earlier work.
Data set [5] deals with Na+-K+ ATPase activity of cough receptor terminations. As to the kind of experiment: intravital FM2-10 styryl dye labeling of cough receptor terminals in tracheal mucosa. The settings on record: data not shown. Further details: species or system guinea pig. The source says:
FIGS. 1A-1D show: (A) selective immunohistochemical labeling of cough receptor terminations in the guinea pig tracheal mucosa with antisera to the alpha3 subunit of Na+K+-ATPase; (B) the cough receptor terminals innerating the tracheal mucosa also are brilliantly and selectively labeled intravitally by the styryl dye FM2-10. This staining method depends upon active Na+-K+ ATPase.
Mazzone, S. B, et al., “Selective Expression of a Sodium Pump Isozyme by Cough Receptors and Evidence for Its Essential Role in Regulating Cough,” J. Neurosci., 2009, 29(43):13662-13671. Thus, the cough receptors uniquely express the alpha3 subunit of the sodium pump in their peripheral terminals, and these terminals display high basal sodium pump activity based on FM2-10 fluorescence.
Referring now to FIGS. 1A-1D, it is shown that: (A) selective immunohistochemical labeling of cough receptor terminations in the guinea pig tracheal mucosa with antisera to the alpha3 subunit of Na+K+-ATPase; (B) the cough receptor terminals innerating the tracheal mucosa also are brilliantly and selectively labeled intravitally by the styryl dye FM2-10. Styryl dyes are known to produce fluorescence intensity proportional to Na+-K+-ATPase activity. Consistent with this notion, FM2-10 labeling of the cough receptor terminations is prevented by the sodium pump inhibitor ouabain (not shown). […]

For the compound `COc1ccc2[nH]c([S+]([O-])Cc3ncc(C)c(OC)c3C)nc2c1` (stereo not shown) [omeprazole], the “citric acid evoked coughing” value in data set [1] (topically applied to the tracheal mucosa, 0.1 mM, listed as acid activated omeprazole) is reported as “nearly abolished”; in data set [2] it was “markedly inhibits”.
Turning to `C[C@@H]1O[C@@H](O[C@H]2C[C@@H](O)[C@]3(CO)[C@H]4[C@H](O)C[C@]5(C)[C@@H](C6=CC(=O)OC6)CC[C@]5(O)[C@@H]4CC[C@]3(O)C2)[C@H](O)[C@H](O)[C@H]1O` [ouabain], in the data set on cough receptors, the “high frequency action potential patterning in cough receptors” value is “reduced substantially”. Moreover, in data set [1] (dose 30 μg/kg lv), the blood pressure entry was “no effect”, the “citric acid evoked coughing” value was “nearly abolished”, the heart rate result is “no effect” and the “respiratory pattern at eupnea” value is reported as “no effect”. In addition, in data set [3], the “FM2-10 labeling of the cough receptors” value is “prevented”. In addition, the “coughing evoked in vivo” value in data set [4] is on record as “reduced substantially”. Besides, in data set [5], the “FM2-10 labeling of the cough receptor terminations” value is listed as “prevented”.
